{"source": "paper PMC10004634", "about": "(PLOS ONE, 2023)", "experiment_in_all_cases": "biochemical", "set-up_in_all_cases": "KINOMEscan scanMAX competition binding, DNA-tagged kinases, qPCR read-out, percent control at 300 nM", "key": {"CAMK1G": {"biological_target": "CAMK1G (Homo sapiens, UniProt Q96NX5)", "sequence (Q96NX5 whole entry)": "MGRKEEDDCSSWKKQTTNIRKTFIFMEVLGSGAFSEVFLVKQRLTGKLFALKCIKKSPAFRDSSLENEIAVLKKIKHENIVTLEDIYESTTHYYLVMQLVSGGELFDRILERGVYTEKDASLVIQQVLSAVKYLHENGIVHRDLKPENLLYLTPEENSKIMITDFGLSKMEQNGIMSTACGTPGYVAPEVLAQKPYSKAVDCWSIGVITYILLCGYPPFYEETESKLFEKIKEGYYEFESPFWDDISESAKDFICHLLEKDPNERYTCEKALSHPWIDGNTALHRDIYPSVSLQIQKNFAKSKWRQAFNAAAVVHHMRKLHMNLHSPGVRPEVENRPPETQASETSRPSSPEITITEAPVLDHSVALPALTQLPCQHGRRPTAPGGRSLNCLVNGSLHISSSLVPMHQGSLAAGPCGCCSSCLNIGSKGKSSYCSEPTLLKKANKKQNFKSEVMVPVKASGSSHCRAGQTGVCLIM"}, "CSNK1E": {"biological_target": "CSNK1E (Homo sapiens, UniProt P49674)", "sequence (P49674 whole entry)": "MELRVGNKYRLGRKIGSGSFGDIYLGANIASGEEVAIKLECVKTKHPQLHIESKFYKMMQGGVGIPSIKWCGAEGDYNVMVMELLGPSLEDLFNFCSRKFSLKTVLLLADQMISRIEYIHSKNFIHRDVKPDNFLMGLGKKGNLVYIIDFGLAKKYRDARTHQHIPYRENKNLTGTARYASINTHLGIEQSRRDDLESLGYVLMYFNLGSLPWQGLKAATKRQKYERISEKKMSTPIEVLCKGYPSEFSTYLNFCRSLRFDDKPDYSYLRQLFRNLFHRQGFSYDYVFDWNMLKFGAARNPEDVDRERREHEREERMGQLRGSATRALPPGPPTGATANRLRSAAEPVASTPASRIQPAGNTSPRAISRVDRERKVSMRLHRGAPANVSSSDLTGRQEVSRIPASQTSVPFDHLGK"}, "EPHB2": {"biological_target": "T1, EPHB2 (Homo sapiens, UniProt P29323)", "T1 sequence (P29323 1-1055)": "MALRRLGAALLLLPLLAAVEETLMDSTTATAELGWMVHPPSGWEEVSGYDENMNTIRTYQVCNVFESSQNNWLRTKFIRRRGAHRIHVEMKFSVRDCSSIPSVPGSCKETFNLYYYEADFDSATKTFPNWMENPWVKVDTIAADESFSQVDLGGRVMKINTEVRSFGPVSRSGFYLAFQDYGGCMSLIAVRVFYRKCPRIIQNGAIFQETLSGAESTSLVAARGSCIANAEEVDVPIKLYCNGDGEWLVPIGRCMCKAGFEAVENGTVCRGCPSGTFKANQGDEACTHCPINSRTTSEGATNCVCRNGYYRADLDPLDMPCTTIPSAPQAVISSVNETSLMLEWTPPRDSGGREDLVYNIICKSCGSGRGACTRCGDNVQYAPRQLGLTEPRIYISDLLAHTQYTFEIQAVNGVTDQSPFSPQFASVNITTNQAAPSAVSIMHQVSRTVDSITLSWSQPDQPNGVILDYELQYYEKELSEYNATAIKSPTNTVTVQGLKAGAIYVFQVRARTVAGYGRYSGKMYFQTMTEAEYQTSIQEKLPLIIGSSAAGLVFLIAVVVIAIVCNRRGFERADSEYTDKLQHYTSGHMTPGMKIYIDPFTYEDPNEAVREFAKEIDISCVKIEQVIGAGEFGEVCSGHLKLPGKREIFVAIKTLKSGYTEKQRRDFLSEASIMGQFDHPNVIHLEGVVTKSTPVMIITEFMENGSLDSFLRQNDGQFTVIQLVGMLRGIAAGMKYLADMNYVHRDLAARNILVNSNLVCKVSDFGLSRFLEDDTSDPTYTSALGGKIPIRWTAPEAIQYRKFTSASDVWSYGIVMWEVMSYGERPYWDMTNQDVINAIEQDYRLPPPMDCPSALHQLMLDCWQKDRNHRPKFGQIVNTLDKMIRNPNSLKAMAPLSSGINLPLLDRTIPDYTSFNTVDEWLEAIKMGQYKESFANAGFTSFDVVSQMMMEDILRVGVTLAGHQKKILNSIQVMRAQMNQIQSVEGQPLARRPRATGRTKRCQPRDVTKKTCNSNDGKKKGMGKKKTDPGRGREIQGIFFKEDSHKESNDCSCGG"}, "LATS2": {"biological_target": "T2, LATS2 (Homo sapiens, UniProt Q9NRM7)", "T2 sequence (Q9NRM7 1-1088)": "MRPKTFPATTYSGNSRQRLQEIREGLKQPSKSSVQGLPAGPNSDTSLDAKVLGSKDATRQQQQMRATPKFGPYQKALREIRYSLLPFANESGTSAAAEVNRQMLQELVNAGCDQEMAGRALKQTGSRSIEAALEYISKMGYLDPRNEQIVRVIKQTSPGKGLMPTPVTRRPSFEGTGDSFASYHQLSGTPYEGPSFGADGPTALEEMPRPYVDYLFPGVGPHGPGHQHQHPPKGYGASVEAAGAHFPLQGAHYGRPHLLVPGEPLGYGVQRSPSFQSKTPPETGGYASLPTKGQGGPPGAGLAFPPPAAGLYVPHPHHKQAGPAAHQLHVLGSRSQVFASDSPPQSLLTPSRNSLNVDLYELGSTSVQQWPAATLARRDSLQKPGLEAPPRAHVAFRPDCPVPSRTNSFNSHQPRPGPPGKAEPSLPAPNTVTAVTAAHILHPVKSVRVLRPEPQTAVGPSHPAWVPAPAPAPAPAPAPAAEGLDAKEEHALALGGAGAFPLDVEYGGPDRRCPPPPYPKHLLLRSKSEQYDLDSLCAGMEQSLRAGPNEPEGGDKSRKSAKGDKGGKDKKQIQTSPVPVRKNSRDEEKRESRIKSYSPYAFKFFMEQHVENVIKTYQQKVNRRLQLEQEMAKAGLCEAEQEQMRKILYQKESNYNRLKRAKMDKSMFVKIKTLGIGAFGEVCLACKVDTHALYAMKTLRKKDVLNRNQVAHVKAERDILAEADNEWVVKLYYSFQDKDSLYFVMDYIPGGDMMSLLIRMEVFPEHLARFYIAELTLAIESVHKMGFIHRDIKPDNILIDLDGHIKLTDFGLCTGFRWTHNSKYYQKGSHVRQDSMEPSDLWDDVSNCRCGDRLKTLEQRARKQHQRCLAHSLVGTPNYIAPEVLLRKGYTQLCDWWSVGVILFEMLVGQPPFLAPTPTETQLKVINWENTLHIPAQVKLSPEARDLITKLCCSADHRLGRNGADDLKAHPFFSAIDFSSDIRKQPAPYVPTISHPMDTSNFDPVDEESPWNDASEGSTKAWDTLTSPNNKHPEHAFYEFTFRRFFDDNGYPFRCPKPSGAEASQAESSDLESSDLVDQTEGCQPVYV"}, "MAP4K4": {"biological_target": "MAP4K4 (Homo sapiens, UniProt O95819)", "sequence (O95819 whole entry)": "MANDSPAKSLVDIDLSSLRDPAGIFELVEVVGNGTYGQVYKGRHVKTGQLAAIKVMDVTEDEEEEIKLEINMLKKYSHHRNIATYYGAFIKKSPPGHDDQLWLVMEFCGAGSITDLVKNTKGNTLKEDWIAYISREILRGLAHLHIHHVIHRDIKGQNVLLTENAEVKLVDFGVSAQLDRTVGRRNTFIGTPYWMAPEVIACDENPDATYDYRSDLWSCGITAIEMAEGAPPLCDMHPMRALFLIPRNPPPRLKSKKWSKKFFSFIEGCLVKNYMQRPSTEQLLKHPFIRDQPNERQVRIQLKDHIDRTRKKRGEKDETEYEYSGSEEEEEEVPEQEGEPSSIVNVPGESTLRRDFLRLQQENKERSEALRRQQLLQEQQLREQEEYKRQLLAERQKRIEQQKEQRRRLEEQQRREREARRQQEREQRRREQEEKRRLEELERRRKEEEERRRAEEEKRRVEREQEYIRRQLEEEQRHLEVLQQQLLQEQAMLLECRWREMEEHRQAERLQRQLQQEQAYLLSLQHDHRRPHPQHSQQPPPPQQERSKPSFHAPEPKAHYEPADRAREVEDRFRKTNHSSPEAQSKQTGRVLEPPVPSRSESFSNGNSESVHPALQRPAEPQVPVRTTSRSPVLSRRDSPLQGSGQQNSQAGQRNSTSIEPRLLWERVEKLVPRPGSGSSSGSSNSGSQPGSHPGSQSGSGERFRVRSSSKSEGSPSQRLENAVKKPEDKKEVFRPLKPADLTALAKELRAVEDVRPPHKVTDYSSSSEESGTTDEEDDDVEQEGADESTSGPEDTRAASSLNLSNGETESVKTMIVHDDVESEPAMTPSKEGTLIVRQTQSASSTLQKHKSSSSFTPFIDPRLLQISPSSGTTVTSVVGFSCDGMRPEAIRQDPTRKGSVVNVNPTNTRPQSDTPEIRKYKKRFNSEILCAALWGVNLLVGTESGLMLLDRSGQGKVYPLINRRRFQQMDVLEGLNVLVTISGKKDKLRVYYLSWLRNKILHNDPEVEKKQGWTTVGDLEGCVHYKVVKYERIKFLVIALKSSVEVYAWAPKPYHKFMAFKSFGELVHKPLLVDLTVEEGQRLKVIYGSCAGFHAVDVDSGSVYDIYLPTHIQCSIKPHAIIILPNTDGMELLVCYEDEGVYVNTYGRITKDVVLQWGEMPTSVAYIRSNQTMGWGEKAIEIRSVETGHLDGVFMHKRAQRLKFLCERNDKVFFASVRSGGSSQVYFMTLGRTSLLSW"}, "CAMK4": {"biological_target": "CAMK4 (Homo sapiens, UniProt Q16566)", "sequence (Q16566 whole entry, looked up)": "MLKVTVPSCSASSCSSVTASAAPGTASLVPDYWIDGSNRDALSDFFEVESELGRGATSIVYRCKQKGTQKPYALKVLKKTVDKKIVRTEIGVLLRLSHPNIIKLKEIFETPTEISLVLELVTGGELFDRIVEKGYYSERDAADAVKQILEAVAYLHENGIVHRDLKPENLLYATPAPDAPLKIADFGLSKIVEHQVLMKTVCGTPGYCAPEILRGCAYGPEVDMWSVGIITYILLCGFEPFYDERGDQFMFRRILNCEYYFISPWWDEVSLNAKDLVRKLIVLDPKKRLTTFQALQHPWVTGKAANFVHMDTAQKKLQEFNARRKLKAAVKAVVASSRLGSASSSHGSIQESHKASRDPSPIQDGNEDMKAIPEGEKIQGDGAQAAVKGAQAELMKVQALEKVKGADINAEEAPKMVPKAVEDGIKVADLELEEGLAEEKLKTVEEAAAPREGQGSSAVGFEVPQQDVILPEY"}, "RET(M918T)": {"biological_target": "RET(M918T) (Homo sapiens, UniProt P07949, M918T)", "sequence (P07949 whole entry M918T)": "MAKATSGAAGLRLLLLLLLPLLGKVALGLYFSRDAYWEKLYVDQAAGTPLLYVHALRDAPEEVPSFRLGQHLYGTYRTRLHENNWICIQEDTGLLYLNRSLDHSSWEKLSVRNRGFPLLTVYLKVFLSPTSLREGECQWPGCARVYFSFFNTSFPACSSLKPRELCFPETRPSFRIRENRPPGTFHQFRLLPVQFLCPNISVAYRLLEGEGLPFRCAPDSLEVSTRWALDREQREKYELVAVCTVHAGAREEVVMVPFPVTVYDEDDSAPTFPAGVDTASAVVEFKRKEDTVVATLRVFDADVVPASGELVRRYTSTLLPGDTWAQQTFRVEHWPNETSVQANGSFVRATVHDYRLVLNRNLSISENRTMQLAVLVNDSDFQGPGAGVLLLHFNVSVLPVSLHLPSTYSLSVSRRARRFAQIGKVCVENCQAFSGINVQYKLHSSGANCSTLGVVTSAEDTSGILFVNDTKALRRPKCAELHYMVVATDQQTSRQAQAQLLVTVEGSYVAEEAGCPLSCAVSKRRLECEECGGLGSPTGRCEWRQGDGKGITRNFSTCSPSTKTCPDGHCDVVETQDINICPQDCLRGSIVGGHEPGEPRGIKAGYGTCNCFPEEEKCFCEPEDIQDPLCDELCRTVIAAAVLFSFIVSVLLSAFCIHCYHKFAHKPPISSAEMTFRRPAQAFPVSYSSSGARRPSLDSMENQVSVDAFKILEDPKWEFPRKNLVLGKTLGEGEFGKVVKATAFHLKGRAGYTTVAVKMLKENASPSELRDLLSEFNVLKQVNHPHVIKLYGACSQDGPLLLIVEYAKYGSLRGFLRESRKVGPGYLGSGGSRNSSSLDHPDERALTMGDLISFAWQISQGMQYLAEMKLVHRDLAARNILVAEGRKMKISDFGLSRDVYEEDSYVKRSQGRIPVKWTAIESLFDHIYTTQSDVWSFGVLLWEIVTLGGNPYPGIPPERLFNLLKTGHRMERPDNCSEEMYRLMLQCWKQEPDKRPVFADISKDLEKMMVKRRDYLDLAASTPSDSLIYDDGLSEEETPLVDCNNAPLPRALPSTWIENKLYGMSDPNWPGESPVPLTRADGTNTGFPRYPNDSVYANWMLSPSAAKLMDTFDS"}, "[1]": {"conditions": "read-out: Percent control / Acalabrutinib"}, "[2]": {"conditions": "read-out: Percent control / Ibrutinib"}, "[3]": {"conditions": "read-out: Percent control / Tirabrutinib"}, "[4]": {"conditions": "read-out: Percent control / Zanubrutinib"}}, "note": "Like-named read-outs stand apart in the source and are kept apart here.", "data": [{"molecule": "CC#CC(=O)N1CCC[C@H]1c1nc(-c2ccc(C(=O)Nc3ccccn3)cc2)c2c(N)nccn12", "note": "[Acalabrutinib]", "values": [{"measurement": "remaining binding at 0.3 µM", "setting": "CAMK1G; [1]", "result": 97, "unit": "%"}, {"measurement": "remaining binding at 0.3 µM", "setting": "CSNK1E; [1]", "result": 89, "unit": "%"}, {"measurement": "remaining binding at 0.3 µM", "setting": "EPHB2; [1]", "result": 89, "unit": "%"}, {"measurement": "remaining binding at 0.3 µM", "setting": "LATS2; [1]", "result": 90, "unit": "%"}, {"measurement": "remaining binding at 0.3 µM", "setting": "MAP4K4; [1]", "result": 92, "unit": "%"}]}, {"molecule": "C=CC(=O)N1CCC[C@@H](n2nc(-c3ccc(Oc4ccccc4)cc3)c3c(N)ncnc32)C1", "note": "[Ibrutinib]", "values": [{"measurement": "remaining binding at 0.3 µM", "setting": "CAMK4; [2]", "result": 96, "unit": "%"}, {"measurement": "remaining binding at 0.3 µM", "setting": "CSNK1E; [2]", "result": 79, "unit": "%"}, {"measurement": "remaining binding at 0.3 µM", "setting": "MAP4K4; [2]", "result": 98, "unit": "%"}, {"measurement": "remaining binding at 0.3 µM", "setting": "RET(M918T); [2]", "result": 32, "unit": "%"}]}, {"molecule": "CC#CC(=O)N1CC[C@@H](n2c(=O)n(-c3ccc(Oc4ccccc4)cc3)c3c(N)ncnc32)C1", "note": "[Tirabrutinib]", "values": [{"measurement": "remaining binding at 0.3 µM", "setting": "CAMK1G; [3]", "result": 98, "unit": "%"}, {"measurement": "remaining binding at 0.3 µM", "setting": "CAMK4; [3]", "result": 82, "unit": "%"}, {"measurement": "remaining binding at 0.3 µM", "setting": "CSNK1E; [3]", "result": 95, "unit": "%"}, {"measurement": "remaining binding at 0.3 µM", "setting": "EPHB2; [3]", "result": 87, "unit": "%"}, {"measurement": "remaining binding at 0.3 µM", "setting": "LATS2; [3]", "result": 92, "unit": "%"}, {"measurement": "remaining binding at 0.3 µM", "setting": "MAP4K4; [3]", "result": 98, "unit": "%"}, {"measurement": "remaining binding at 0.3 µM", "setting": "RET(M918T); [3]", "result": 91, "unit": "%"}]}, {"molecule": "C=CC(=O)N1CCC([C@@H]2CCNc3c(C(N)=O)c(-c4ccc(Oc5ccccc5)cc4)nn32)CC1", "note": "[Zanubrutinib]", "values": [{"measurement": "remaining binding at 0.3 µM", "setting": "CAMK1G; [4]", "result": 96, "unit": "%"}, {"measurement": "remaining binding at 0.3 µM", "setting": "CAMK4; [4]", "result": 91, "unit": "%"}, {"measurement": "remaining binding at 0.3 µM", "setting": "EPHB2; [4]", "result": 100, "unit": "%"}, {"measurement": "remaining binding at 0.3 µM", "setting": "LATS2; [4]", "result": 82, "unit": "%"}, {"measurement": "remaining binding at 0.3 µM", "setting": "MAP4K4; [4]", "result": 100, "unit": "%"}, {"measurement": "remaining binding at 0.3 µM", "setting": "RET(M918T); [4]", "result": 92, "unit": "%"}]}]}
